Like-named read-outs stand apart in the source and are kept apart here.

Series [1] can be described thus: Liver microsomal stability, rat liver microsomes. It is filed as in vitro ADME. Conditions: 1 μM compound, NADPH, read-out: t1/2 (min) in RLM. How it is done:
(§1) Certain Compounds of the Disclosure were assessed for ADME metabolic stability in human liver microsomes (HLM) and rat liver microsomes (RLM).
(§2) Samples were prepared by adding 222.5 μL of a master solution (100 mM phosphate buffer and 1 mg/mL liver microsomes (HLM or RLM)) and 25 μL of a 10 mM NADPH solution to incubation plates, which were then warmed for 10 min. Each compound was separately dissolved in DMSO to prepare 10 mM stock solutions, which were then diluted to 100 μM with acetonitrile. A reaction was started by adding 2.5 μL of the 100 μM solution of each compound to separate incubation plates such that the final concentration of for each compound in each plate was 1 μM.
(§3) 25 μL aliquots of each sample were taken at 0.5, 5, 10, 15, 20 and 30 minutes, and the reaction was stopped by adding 5 volumes of cold acetonitrile with IS (100 nM alprazolam, 200 nM caffeine and 100 nM tolbutamide). The samples were then centrifuged at 3,220 G for 30 minutes, and 100 μL of the supernatant fluid was mixed with 100 μL of ultra-pure H2O.
(§4) The samples were then analyzed by LC-MS/MS. Peak areas were determined from extracted ion chromatograms. Slope values (k) were determined by linear regression of the natural logarithm of the remaining percentage of the compound vs. incubation time curve. […] The in vitro half-life (min) was converted into the in vitro intrinsic clearance (in vitro CLint, in μL/min/mg protein) using the following equation: […]
Background: Liver microsomes are vesicles of endoplasmic reticulum, rich in cytochrome P450 enzymes.

The nature of series [2]: ADME solubility determination at pH 2.0 and pH 7.4. Conditions: aqueous buffer, thermodynamic from solid, LC-MS/MS. It is filed as physicochemical. How it is done: Certain Compounds of the Disclosure were assessed for ADME solubility at pH 2.0 and pH 7.4.
Stock solutions were prepared by adding each compound to DMSO at a concentration of 10 mM. Samples were prepared by adding 50 μL of each stock solution to separate vials. The vials were loaded onto a 96-well rack and dried. 500 μL of Phosphate Buffered Saline (PBS) pH 7.4 or PBS pH 2.0 were added into each vial. The vials were then shaken at 25° C. and 1,100 rpm for 24 hours.
After 24 hours, the vials were centrifuged at 3220 G and 25° C. for 30 minutes. The supernatant fluid was analyzed by LC-MS/MS against a standard of known concentration. The solubility of each sample was then calculated using the equation below:
[formula] where DF is the dilution factor.

A short description of series [3]: Liver microsomal stability, human liver microsomes. It is filed as in vitro ADME. To be noted: 1 μM compound, NADPH, read-out: t1/2 (min) in HLM. The protocol: as §1, §2, §3, §4
The mark [4] stands for this setting: PBS pH 2.0, shaken at 25° C. for 24 hours, read-out: Solubility at pH 2.0.
Setting [5] is: PBS pH 7.4, shaken at 25° C. for 24 hours, read-out: Solubility at pH 7.4.
[6] abbreviates: phosphate buffered saline, PBS pH 2.0, shaken at 25° C. for 24 hours, read-out: Solubility at pH 2.0.
Setting [7] is: phosphate buffered saline, PBS pH 7.4, shaken at 25° C. for 24 hours, read-out: Solubility at pH 7.4.

As to `CCn1cc(C#N)nc1-c1ccc(Cn2ncc3cnc(-c4c(OC)ncnc4C4CC4)nc32)cc1` [Example 148, 2-(4-((6-(4-cyclopropyl-6-methoxypyrimidin-5-yl)-1H-pyrazolo[3,4-d]pyrimidin-1-yl)methyl)phenyl)-1-ethyl-1H-imidazole-4-carbonitrile], the half-life at 1 μM in series [1] and in series [3] was less than 25 min in each case. Also, the solubility at 24 h in series [2] (setting [4]) and in series [2] (setting [5]) was less than 10 µM in each case.

For `COc1ncnc(C2CC2)c1-c1ncc2cnn(C(C)c3ccc(-c4nc(C(F)(F)F)cn4CCF)cc3)c2n1` (centres unmarked) [Example 141], the half-life at 1 μM in series [1] and in series [3] was more than 25 min each time. Moreover, the solubility (as a rule, the concentration that dissolves in the medium under given conditions) at 24 h was more than 10 µM in series [2] (setting [4]) and less than 10 µM in series [2] (setting [5]).

Regarding `CCOc1ncnc(OCC)c1-c1ncc2cnn(Cc3ccc(-c4nc(C(F)(F)F)cn4CC)cc3)c2n1` [Example 91], the half-life at 1 μM in series [1] and in series [3] was less than 25 min throughout. The solubility at 24 h was more than 10 µM in series [2] (setting [4]) and less than 10 µM in series [2] (setting [5]).

For the compound `COc1cn(C(C)C)c(-c2ccc(Cn3ncc4cnc(-c5c(OC)ncnc5C5CC5)nc43)cc2)n1` [Example 74], the half-life at 1 μM in series [1] and in series [3] was less than 25 min in each case. Further, the solubility at 24 h in series [2] (setting [4]) and in series [2] (setting [5]) was more than 10 µM each time.

On to `COc1ncnc(C2CC2)c1-c1ncc2c(OC)nn([C@@H](C)c3ccc(-c4nc(C(F)(F)F)cn4CCF)cc3)c2n1` [Example 178], for which the half-life at 1 μM in series [1] and in series [3] was more than 25 min throughout. In addition, the solubility at 24 h in series [2] (setting [4]) and in series [2] (setting [5]) was less than 10 µM each time.

Turning to `COc1ncnc(C2(C)CC2)c1-c1ncc2cnn(Cc3ccc(-n4nc(C(F)(F)F)cc4C)cc3)c2n1` [Example 105], the half-life at 1 μM in series [1] and in series [3] was more than 25 min throughout. For the same compound, the solubility at 24 h in series [2] (setting [4]) is more than 10 µM; in series [2] (setting [5]), less than 10 µM.

Turning to `COc1ncnc(C2CC2)c1-c1ncc2cnn(Cc3ccc(-c4nc(C(F)(F)F)cn4C(C)CF)cc3)c2n1` (centres unmarked) [Example 151, 6-(4-cyclopropyl-6-methoxypyrimidin-5-yl)-1-(4-(1-(1-fluoropropan-2-yl)-4-(trifluoromethyl)-1H-imidazol-2-yl)benzyl)-1H-pyrazolo[3,4-d]pyrimidine], the half-life at 1 μM in series [1] and in series [3] was more than 25 min in each case. For the same compound, the solubility at 24 h in series [2] (setting [4]) and in series [2] (setting [5]) was more than 10 µM in each case.

As for `COc1ncnc(C2CC2)c1-c1ncc2cnn(Cc3ccc(-c4nc(C(F)(F)F)c[nH]4)cc3)c2n1` [Example 134, 6-(4-cyclopropyl-6-methoxypyrimidin-5-yl)-1-(4-(4-(trifluoromethyl)-1H-imidazol-2-yl)benzyl)-1H-pyrazolo[3,4-d]pyrimidine], the half-life at 1 μM in series [1] and in series [3] was more than 25 min in each case. The solubility at 24 h in series [2] (setting [4]) and in series [2] (setting [5]) was less than 10 µM throughout.

In the case of `COc1nccc(C)c1-c1ncc2cnn(Cc3ccc(-c4nc(C(F)(F)F)cn4C)cc3)c2n1` [Example 6, 6-(2-methoxy-4-methylpyridin-3-yl)-1-(4-(1-methyl-4-(trifluoromethyl)-1H-imidazol-2-yl)benzyl)-1H-pyrazolo[3,4-d]pyrimidine], the half-life at 1 μM in series [1] and in series [3] was less than 25 min in each case. The solubility at 24 h was more than 10 µM in series [2] (setting [4]) and less than 10 µM in series [2] (setting [5]).

For the compound `CC(C)c1ccccc1-c1ncc2cnn(Cc3ccc(-c4nc(C(F)(F)F)cn4C4CN(C)C4)cc3)c2n1` [Example 152, 6-(2-Isopropylphenyl)-1-(4-(1-(1-methylazetidin-3-yl)-4-(trifluoromethyl)-1H-imidazol-2-yl)benzyl)-1H-pyrazolo[3,4-d]pyrimidine], the half-life at 1 μM in series [1] and in series [3] was less than 25 min in each case. Also, the solubility at 24 h in series [2] (setting [4]) and in series [2] (setting [5]) was more than 10 µM throughout.

Regarding `COc1ncnc(C2(C)CC2)c1-c1ncc2cnn(Cc3ccc(-c4nc(C(F)(F)F)cn4C)cc3)c2n1` [Example 104], the half-life at 1 μM in series [1] and in series [3] was less than 25 min in each case. The solubility at 24 h in series [2] (setting [4]) and in series [2] (setting [5]) was more than 10 µM throughout.

In the case of `COc1ncnc(C2CC2)c1-c1ncc2cnn(Cc3ccc(-c4nc(C(F)(F)F)cn4C4CN(C)C4)cc3)c2n1` [Example 153], the half-life at 1 μM in series [1] and in series [3] was less than 25 min throughout. Besides, the solubility at 24 h in series [2] (setting [6]) and in series [2] (setting [7]) was more than 10 µM throughout.

With `CCn1cc(C(F)(F)F)nc1-c1ccc([C@H](C)n2ncc3cnc(-c4c(OC)ncnc4C(C)C)nc32)cc1` [Example 117], the half-life at 1 μM in series [1] and in series [3] was less than 25 min in each case. In addition, the solubility at 24 h in series [2] (setting [4]) and in series [2] (setting [5]) was more than 10 µM throughout.

Take `COc1ncnc(C2CCC2)c1-c1ncc2cnn(Cc3ccc(-c4nc(C(F)(F)F)cn4C(C)C)cc3)c2n1` [Example 16]: the half-life at 1 μM in series [1] and in series [3] was less than 25 min throughout. The solubility at 24 h was more than 10 µM in series [2] (setting [4]) and less than 10 µM in series [2] (setting [5]).

Take `[2H]C([2H])([2H])C([2H])([2H])n1cc(C(F)(F)F)nc1-c1ccc(Cn2ncc3cnc(-c4c(OC)ncnc4C4CC4)nc32)cc1` [Example 139]: the half-life at 1 μM in series [1] and in series [3] was more than 25 min each time. For the same compound, the solubility at 24 h in series [2] (setting [4]) and in series [2] (setting [5]) was more than 10 µM throughout.

As for `COc1ncnc(C2CC2)c1-c1ncc2cnn(Cc3ccc(-n4nc(C(F)(F)F)cc4OC4CNC4)cc3)c2n1` [Example 200, 1-(4-(5-(azetidin-3-yloxy)-3-(trifluoromethyl)-1H-pyrazol-1-yl)benzyl)-6-(4-cyclopropyl-6-methoxypyrimidin-5-yl)-1H-pyrazolo[3,4-d]pyrimidine], the half-life at 1 μM in series [1] and in series [3] was more than 25 min throughout. Moreover, the solubility at 24 h in series [2] (setting [4]) and in series [2] (setting [5]) was more than 10 µM throughout.

Consider `CCOc1nn(Cc2ccc(-c3nc(C(F)(F)F)cn3CC)cc2)c2nc(-c3c(OC)ncnc3C3CC3)ncc12` [Example 182], for which the half-life at 1 μM in series [1] and in series [3] was more than 25 min each time. Besides, the solubility at 24 h in series [2] (setting [4]) and in series [2] (setting [5]) was less than 10 µM each time.

Take `CCn1cc(C(F)(F)F)nc1-c1ccc([C@@H](C)n2ncc3cnc(-c4c(OC)ncnc4C4CCC4)nc32)cc1` (single isomer, unassigned) [Example 100]: the half-life at 1 μM in series [1] and in series [3] was less than 25 min each time. The figures for the solubility at 24 h in series [2] (setting [4]) and in series [2] (setting [5]) were more than 10 µM and less than 10 µM, respectively.

Regarding `CCn1c(-c2ccc(Cn3nc(OC)c4cnc(-c5c(OC)ncnc5C5CC5)nc43)cc2)nc(C(F)(F)F)c1Br` [Example 189], the half-life at 1 μM in series [1] and in series [3] was more than 25 min each time. Further, the solubility at 24 h in series [2] (setting [4]) and in series [2] (setting [5]) was less than 10 µM in each case.

In the case of `CCOc1ncnc(C2CC2)c1-c1ncc2cnn(Cc3ccc(-c4nc(C(F)(F)F)cn4C)cc3)c2n1` [Example 39], the half-life at 1 μM in series [1] and in series [3] was less than 25 min in each case. For the same compound, the results for the solubility at 24 h in series [2] (setting [6]) and in series [2] (setting [7]) were more than 10 µM and less than 10 µM, respectively.

`CCn1cc(C(F)(F)F)nc1-c1ccc([C@H](C)n2ncc3cnc(-c4c(OC)ncnc4C4CC4)nc32)cc1` (single isomer, unassigned) [Example 94]: the half-life at 1 μM in series [1] is less than 25 min; in series [3] it was more than 25 min. For the same compound, the figures for the solubility at 24 h in series [2] (setting [4]) and in series [2] (setting [5]) were more than 10 µM and less than 10 µM, respectively.

In the case of `CCn1cc(C(F)(F)F)nc1-c1ccc(Cn2ncc3cnc(-c4c(OC)ncnc4C4CC4)nc32)cc1F` [Example 18], the half-life at 1 μM in series [1] and in series [3] was more than 25 min in each case. In addition, the solubility at 24 h in series [2] (setting [4]) and in series [2] (setting [5]) was less than 10 µM each time.

Regarding `COc1ncnc(C2CC2)c1-c1ncc2cnn([C@@H](C)c3ccc(-c4nc(C(F)(F)F)cn4C)cc3)c2n1` (single isomer, unassigned) [Example 92], the half-life at 1 μM in series [1] was more than 25 min; in series [3], less than 25 min. Moreover, the solubility at 24 h in series [2] (setting [4]) and in series [2] (setting [5]) was more than 10 µM each time.

(Values after patent US11485736B2 (KSQ Therapeutics, Inc., priority 2018, dated 2022).)
